Measurements reported in US20220267374A1, “IMMUNITY INDUCER AND PHARMACEUTICAL COMPOSITION FOR PREVENTING OR TREATING AGING-RELATED DISEASES” (priority 2019, published 2022).
Ends that are not written are not given here.

Assays:
[1] = Metabolic test (glucose tolerance test and insulin tolerance test); assay type: in vivo, C57BL/6 mice; conditions: HFD-fed mice, 16 weeks of age, s.c. vaccination at 8 weeks of age; compared to control vaccine; FIG. 2I
Description: Mice were bred individually from 1 week before the test. On the day of the glucose tolerance test (GTT), mice were fasted for 6 hours, followed by intraperitoneal injection of glucose at a dose of 1 g/kg (body weight) in the early afternoon. For the insulin tolerance test (ITT), mice were intraperitoneally administered with human insulin (1 U/kg (body weight)). After administration of glucose or insulin, tail venous blood was collected 0, 15, 30, 60 and 120 minutes later, and the blood glucose level was measured with a glucose analyzer (Sanwa Chemical Research Institute).
A metabolic test was performed using the same method as in “5.” of Reference Example 1, except that C57BL/6 mice (16 weeks of age) bred by feeding HFD from 4 weeks of age and administered with peptide vaccine 1, peptide vaccine 2, or control vaccine by subcutaneous injection at a time point of 8 weeks of age were used. In FIG. 2I, “Cont vaccine” is a C57BL/6 mouse administered with a control vaccine, “Gpnmb vaccine 1” is a C57BL/6 mouse administered with peptide vaccine 1, and “Gpnmb vaccine 2” is a C57BL/6 mouse administered with peptide vaccine 2.

GPNMB protein = test: Antibody titer by ELISA in plasma of vaccinated mice; assay type: in vivo, C57BL/6 mice; conditions: vs control vaccine group; KLH-bound peptide 20 μg with Titer Max Gold s.c. at 8 weeks of age, HFD-fed mice; plasma up to 6 weeks; FIG. 2A
Description: First, the antibody titers of the obtained two peptide vaccines were examined. Peptide vaccine 1 or peptide vaccine 2 (20 μg) and Titer Max Gold adjuvant (Titer Max USA) conjugated with KLH as carrier protein for induction of cytotoxic antibody were mixed in two syringes according to the manufacturer's protocol for emulsification. Subsequently, eight-week-old C57BL/6 mice fed with HFD from 4 weeks of age were subcutaneously injected with KLH-binding antigen peptide (20 μg) with a Titer Max Gold adjuvant to induce cytotoxic antibodies. C57BL/6 mice in the control group were subcutaneously injected with a KLH solution (hereinafter, referred to as “control vaccine”) mixed with Titer Max Gold in an equal amount. Plasma was collected from the tail vein of each mouse immediately after administration of the peptide vaccine and after 2, 4, and 6 weeks for antibody titer analysis. The antibody titer produced by injection of each peptide was measured by ELISA. Specifically, first, a 96-well microtiter plate (Nunc-Immuno MicroWell 96-well solid plate, Thermo Scientific) was coated using a carbonate buffer containing peptide vaccine 1 or peptide vaccine 2 bonded to bovine serum albumin (BSA). […] After reacting with the TMB substrate (Sigma-Aldrich, T0440), the optical density was measured at 450 nm (0D450) using a microtiter plate reader (iMark microplate reader, Bio-Rad).

GPNMB-positive cells = test: Analysis of Gpnmb-dependent luciferase activity (in vivo IVIS imaging); set-up: species or system Gpnmb-DTR mouse; conditions: Reference Example 1; HFD-fed Gpnmb-DTR mice, DT 50 μg/kg i.p. twice (12 and 14 weeks of age), 16 weeks of age; FIG. 1B
Description: Gpnmb-DTR mouse bred by feeding normal diet or HFD for 4 weeks, and Gpnmb-DTR mouse bred by feeding HFD for 4 weeks, and then injecting DT (50 μg/kg body weight) at 2-week intervals (12 weeks of age and 14 weeks of age) intraperitoneally twice while continuing to feed HFD (16 weeks of age) were subjected to in vivo luciferase imaging analysis using the IVIS imaging system (Perkin Elmer). Mice were shaved ventrally, anesthetized with isoflurane (Wako Pure Chemicals Industries), and injected intraperitoneally with luciferin (150 mg/kg body weight) according to the manufacturer's instructions (Vivo-Glo; Promega). Luciferase activity was monitored 5 minutes after luciferin administration. Signals were analyzed using Living Image software (Perkin Elmer) to quantify luciferase activity. In FIG. 1B, “Before” is a Gpnmb-DTR mouse before HFD was fed (6 weeks of age), “HFD” is a Gpnmb-DTR mouse that was fed with HFD from 6 weeks of age and bred for 6 weeks (12 weeks of age), and “After DT” is a Gpnmb-DTR mouse that was bred by feeding HFD for 4 weeks and then injecting DT (50 μg/kg body weight) at 2-week intervals (12 weeks of age and 14 weeks of age) intraperitoneally twice while continuing to feed HFD (16 weeks of age). […]

Substance | metabolic abnormality induced by HFD intake (glucose tolerance test and insulin tolerance test) [1] | antibody titer against GPNMB protein (GPNMB protein) | abdominal luciferase activity (Gpnmb-dependent) (GPNMB-positive cells)
RSQHLRFPDR (also: KLH conjugate; listed as Mus musculus) [peptide vaccine 2, peptide of positions 150 to 159 of mouse GPNMB protein] | significantly improved | slightly higher | –
diphtheria toxin [DT, reference compound] | – | – | attenuated
